These results are taken from patent US11135228B2, “Cysteinyl-proresolving mediators that promote resolution of infection and organ protection” (THE BRIGHAM AND WOMEN'S HOSPITAL, priority 2014, dated 2021).

The test system of assay [1] is γ-glutamyl transferase. Nature of the assay: SCI and SCII levels in regenerating planaria with γ-glutamyl transferase inhibitor. Type of assay: in vivo, Dugesia japonica. As to conditions: Acivicin 2.5 mM.
Assay [2] has as its system γ-glutamyl transferase. Put plainly: Sulfido-conjugate levels in activated human macrophages with γ-glutamyl transferase inhibitor. The format is cell-based. As to conditions: Acivicin 2.5 mM. As to the method:
Human macrophages (3×10^7 cells/ml) were incubated with DHA (1 μg, 37° C., PBS, pH 7.45) and E. coli (1.5×10^8 […]). Incubations were stopped with 2 volumes ice-cold methanol, products were extracted and levels assessed by LC-MS-MS. In select experiments, macrophages were incubated with Acivicin (2.5 mM, 37° C. PBS, pH 7.45) prior to addition of DHA (1 μg) and. Acivicin (2.5 mM) and products assessed by LC-MS-MS.
In select experiments, human macrophages (˜4.5×10^7 cells/ml) were incubated with DHA (10.5 μM) or 17-HpD [10 μM at 37° C. (pH 7.45)] and E. coli (1:50) for 30 min at 37° C. Incubations were stopped with 2 volumes of ice-cold methanol, products were extracted, and levels assessed by LC-MS-MS. Macrophages were also incubated with or without Acivicin [2.5 mM at 37° C., PBS (pH 7.45)], a γ-glutamyl transferase (GGT) agent that inhibits LT D4 formation (16), before addition of 17-HpD (10 μM) and E. coli (1:50; 60 min), and products were taken to […].

Assay [3] deals with Mice (zymosan peritonitis). Nature of the assay: Zymosan peritonitis in mice: leukocyte counts and exudate eicosanoids. Type of assay: in vivo, mouse. As to conditions: i.p. prior to 1 mg zymosan; 4 h; MaR1 10 ng. The protocol:
In determined experiments, mice were administered SC isolates from regenerating planaria i.p., obtained as described in the lipid mediator metabololipidomics and isolation of bioactive fractions section below, immediately prior to zymosan administration (i.p. 1 mg/mouse). After 4 h, peritoneal exudates were obtained, leukocytes enumerated as detailed above and eicosanoid levels assessed by lipid mediator metabololipidomics as described below.

For assay [4], the system named is Planaria (Dugesia japonica). Put plainly: Planaria tissue regeneration after surgical injury (head resection), tissue regeneration index. The format is in vivo. As to conditions: surgically injured planaria vs vehicle. The protocol:
(§1) Planaria regeneration: Planaria (Dugesia japonica; Dj) were kept in water (Poland Spring) at 18° C. All animals were starved for at least 7 days prior to experiments. Tissue regeneration was assessed as in (12). Briefly, planaria were subject to head resection post-occularly (surgical Injury). The posterior portions of the planaria were then placed in spring water containing 0.01% EtOH, SPE-C isolate fraction 2 from resolving exudates or milk at the indicated dilutions, U0126 (Extracellular signal-regulated kinases (ERK) inhibitor; Cell Signaling Technology; 25 μM (16)), U0126 plus resolving exudates SPE-C isolates fraction 2, SCI (100 nM), SCII (100 nM), lipoxygenase inhibitor (baicalein, 10 μM) or lipoxygenase inhibitor plus SCI and SCII (100 nM). The extent of tissue regeneration during a 6-day period for D. japonica was determined using captured images of the regenerating blastemas at regular intervals (24 h). These images were analyzed using ImageJ software. A tissue regeneration index (TRI) was employed that took into consideration the size of the regenerated tissue total area (A) and the post-ocular width W of the animal, where TRI=A/W. In determined experiments, planaria were injured and incubated in water, containing 10^8CFU E. coli (serotype O6:K2:H1) or with E. coli plus SCI and SCII (100 nM), and tissue regeneration indices assessed as described above.
Planaria regeneration: Planaria (Dugesia japonica) were kept in water (Poland. Spring; Nestlé Waters North America, Stamford, Conn., USA) at 18° C. All animals were starved for at least 7 d before the experiments. Tissue regeneration was assessed as described previously (10). In brief, planaria were subjected to head resection postoccularly (surgical injury). The posterior portions of the planaria were then placed in spring water containing 0.01% EtOH, 16-glutathionyl, 17-hydroxyl-4Z,7Z,10,12,14,19Z-docosahexaenoic acid plus 16-cysteinylglycinyl, 7-hydroxyl-4Z,7Z,10,12,14,19Z-docosahexaenoic acid (50 nM; each) or 8-gutathionyl, 7,17-dihydroxyl-4Z9,11,13Z,15E,19Z-docosahexaenoic acid plus 8-cysteinylglycinyl, 7,17-dihydroxyl-4Z,9,11,13Z,15E,19Z-docosahexaenoic acid (50 nM, each). The extent of tissue regeneration during a 6-d period was determined using captured images of the regenerating blastemas at regular intervals (24 h). These images were analyzed using ImageJ software (NIH, Bethesda, Md., USA). A tissue regeneration index (TRI) was used that took into consideration the size of the regenerated tissue total area (A) and the postocular width (W), where TRI=A/W (10).

For assay [5], the system named is LOX. Nature of the assay: SC levels in regenerating planaria with lipoxygenase inhibitor (LC-MS-MS). Type of assay: in vivo, Dugesia japonica. As to conditions: measured 3 days post-surgery. The protocol:
as §1, with “The posterior portions of the planaria were then placed in spring water containing 0.01% EtOH, SPE-C isolate fraction 2 from resolving exudates or milk at the indicated dilutions, U0126 (Extracellular signal-regulated kinases (ERK) inhibitor; Cell Signaling Technology; 25 μM (16)), U0126 plus resolving exudates SPE-C isolates fraction 2, SCI (100 nM), SCII (100 nM), lipoxygenase inhibitor (baicalein, 10 μM) or lipoxygenase inhibitor plus SCI and SCII (100 nM).” left out
Lipid mediator metabololipidomics and isolation of bioactive fractions: Peritoneal exudates and exudate cell incubations were immediately placed in 2 volumes of methanol. For lipid mediator profiling, 500 pg each of deuterium-labeled internal standards: d8-5S-HETE, d4-LTB4, d5-LXA4, d4-PGE2, and d5-LTC4 were added to facilitate quantification in each respective chromatographic region and sample recovery. […]

As for `N[C@H](C(=O)O)[C@@H]1CC(Cl)=NO1` [Acivicin], in assay [1], the “SCI level in regenerating planaria” value was “increased” and the “SCII levels in regenerating planaria” value is “decreased”. Also, in assay [2] (E. coli), the “8-cysteinyl, 7,17-dihydroxy-docosahexaenoic acid (RCTR3) levels” value is on record as “decrease”; the “8-glutathionyl, 7,17-dihydroxy-docosahexaenoic acid (RCTR1) levels” value is listed as “statistically significant increase”; the “16-cysteinyl, 17-hydroxy-docosahexaenoic acid (PCTR3) levels” value is “decrease”; the “16-glutathionyl, 17-hydroxy-docosahexaenoic acid (PCTR1) levels” value is recorded as “increase”. Also, in assay [2] (then DHA and E. coli), the SCI levels entry was “significant increase” and the SCII levels result was “reduction”.

Turning to `CC/C=C\C/C=C\C[C@H](O)\C=C/C=C/C=C/[C@H](O)C/C=C\CCC(=O)O` [MaR1, 7R,14S-dihydroxy-docosa-4Z,8E,10E,12Z,16Z,19Z-hexaenoic acid], in assay [3], the “exudate eicosanoid levels including LTB4 and thromboxane (Tx) B2” value is given as “shared”; the “neutrophil recruitment in murine peritonitis” value is given as “shared”. Moreover, the “tissue regeneration / head regrowth (in words)” value in assay [4] is listed as “accelerated this process to essentially the same extent”.

For the compound `O=c1cc(-c2ccccc2)oc2cc(O)c(O)c(O)c12` [baicalein, reference compound], the “levels of both SCI and SCII” value in assay [5] was “reduced”. For the same compound, in assay [4], the “tissue regeneration / head regrowth (in words)” value was “significantly delayed head regrowth”.
